{
  "source": "patent EP0037049A1",
  "about": "“Biphenylyl-imidazolylethane derivatives, process for their preparation and medicaments containing them” (BAYER AG, priority 1980, dated 1981)",
  "data": [
    {"tested_on": "Dermatophyten, Schimmelpilze, Hefen", "assay": "Antifungal in-vitro activity, serial dilution test", "assay_type": "cell-based", "conditions": "incubation at 28°C, 24 h for yeasts, 96 h for dermatophytes and moulds, activity stated to be superior to prior-art compounds (A), (B), (C) and (D)", "protocol": "Die in-vitro-Prüfung wurde im Reihenverdünnungstest mit Keiminokula von durchschnittlich […] Substrat durchgeführt. Als Nährmedium dienten • a) für Dermatophyten und Schimmelpilze: Sabourand's milieu d'epresive • b) für Hefen: • Isotonic Sensitest-Broth von Oxid.\nDie Bebrütungstemperatur betrug 28°C; Bebrütungsdauer war 24 Stunden bei Hefen und 96 Stunden bei Dermatophyten und Schimmelpilzen.", "values": [
      {"smiles": "Clc1ccccc1C(Cn1ccnc1)c1ccc(-c2ccccc2)cc1", "note": "(stereo not shown) [Beispiel 5]", "Antimykotische in-vitro-Wirksamkeit (Wirkung)": "sehr gute Wirkung"},
      {"smiles": "Fc1ccccc1C(Cn1ccnc1)c1ccc(-c2ccccc2)cc1", "note": "(stereo not shown) [Beispiel 6]", "Antimykotische in-vitro-Wirksamkeit (Wirkung)": "sehr gute Wirkung"},
      {"smiles": "Clc1cccc(C(Cn2ccnc2)c2ccc(-c3ccccc3)cc2)c1", "note": "(stereo not shown) [Beispiel 7]", "Antimykotische in-vitro-Wirksamkeit (Wirkung)": "sehr gute Wirkung"},
      {"smiles": "Clc1ccc(-c2ccc(C(Cn3cncn3)c3ccccc3Cl)cc2)cc1", "note": "(stereo not shown) [Beispiel 8]", "Antimykotische in-vitro-Wirksamkeit (Wirkung)": "sehr gute Wirkung"}
    ]}
  ]
}
